Experimental data taken from patent US20250084095A1, “Aminopyrimidine Derivatives as Cyclin-Dependent Kinase Inhibitors” (Accutar Biotechnology Inc., priority 2023, published 2025).
Where two headings read alike, the source gives them in different places.

Tests used:
22RV1 cells = assay: Cell growth inhibition of 22RV1 cells (CellTiter-Glo); type: cell-based; settings: for GI50: Homo sapiens, 22Rv1, 120 h, 5 days, CellTiter-Glo
Procedure, shortened: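 22RV1 cells were plated in RPMI1640 with FBS (20% in one version, 10% in the other) and dosed next day at various concentrations from DMSO stocks. After 5 days at 37 °C, viability was measured by CellTiter-Glo luminescence.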

[1] = test system: Phospho-Rb (Ser807/811) in MCF7 cells; assay: Phospho-Rb expression inhibition in MCF7 cells quantified by in cell Western; type: cell-based, human; settings: for IC50: Homo sapiens, MCF7, 24 h, in cell Western
Procedure, shortened: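 MCF7 cells were seeded at 20,000/well, grown overnight, then treated 24 h at 37 °C with compound dilutions (0.1% DMSO from 1000× stocks). Fixed cells were co-stained for phospho-Rb Ser807/811 and total Rb. Near-infrared dual-channel in-cell Western imaging was the read-out.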

[2] = read-out: 22RV1 Cell Growh GI50
[3] = 24 hours, read-out: MCF7 pRb IC50

Compound	GI50 (22RV1 cells; [2]) [nM]	GI50 (22RV1 cells; read-out: 22RVI, GI50) [nM]	IC50 ([1]; 24 h incubation, read-out: MCF7, pRb (Ser807/811), IC50) [nM]	IC50 [1, 3] [nM]	Potency in 22RV1 cell growth inhibition compared with the reference compound (22RV1 cells; versus PF-07220060)	Potency in p-Rb inhibition compared with the reference compound ([1]; versus PF-07220060)
Cc1c(C)n(C(C)C)c2cc(-c3nc(N[C@@H]4C[C@H]5CO[C@H](O5)[C@H]4O)ncc3Cl)ccc2c1=O [Compound 191, 7-(5-chloro-2-(((1S,3R,4S,5R)-4-hydroxy-6,8-dioxabicyclo[3.2.1]octan-3-yl)amino)pyrimidin-4-yl)-1-isopropyl-2,3-dimethylquinolin-4(1H)-one]	450 to 3000			40 to 150		
CNCc1c(C)c(=O)c2ccc(-c3nc(N[C@@H]4C[C@H]5CO[C@H](O5)[C@H]4O)ncc3F)cc2n1C(C)C [Compound 194, 7-(5-fluoro-2-(((1S,3R,4S,5R)-4-hydroxy-6,8-dioxabicyclo[3.2.1]octan-3-yl)amino)pyrimidin-4-yl)-1-isopropyl-3-methyl-2-((methylamino)methyl)quinolin-4(1H)-one]	120 to 450			40 to 150		
Cc1c(CN(C)C)n(C(C)C)c2cc(-c3nc(N[C@@H]4C[C@H]5CO[C@H](O5)[C@H]4O)ncc3F)ccc2c1=O [Compound 195, 2-((dimethylamino)methyl)-7-(5-fluoro-2-(((1S,3R,4S,5R)-4-hydroxy-6,8-dioxabicyclo [3.2.1]octan-3-yl)amino)pyrimidin-4-yl)-1-isopropyl-3-methylquinolin-4(1H)-one]	120 to 450			40 to 150		
Cc1c(CN2CCC2)n(C(C)C)c2cc(-c3nc(N[C@@H]4C[C@H]5CO[C@H](O5)[C@H]4O)ncc3F)ccc2c1=O [Compound 196, 2-(azetidin-1-ylmethyl)-7-(5-fluoro-2-(((1S,3R,4S,5R)-4-hydroxy-6,8-dioxabicyclo[3.2.1]octan-3-yl)amino)pyrimidin-4-yl)-1-isopropyl-3-methylquinolin-4(1H)-one]	120 to 450			40 to 150		
Cc1c(CN2CC(F)C2)n(C(C)C)c2cc(-c3nc(N[C@@H]4C[C@H]5CO[C@H](O5)[C@H]4O)ncc3F)ccc2c1=O [Compound 197, 7-(5-fluoro-2-(((1S,3R,4S,5R)-4-hydroxy-6,8-dioxabicyclo[3.2.1]octan-3-yl)amino)pyrimidin-4-yl)-2-((3-fluoroazetidin-1-yl)methyl)-1-isopropyl-3-methylquinolin-4(1H)-one]	120 to 450			40 to 150		
CC(C)n1c(CN2[C@@H](C)COC[C@@H]2C)c(F)c(=O)c2ccc(-c3nc(N[C@@H]4C[C@H]5CO[C@H](O5)[C@H]4O)ncc3Cl)cc21 [Compound 201, 7-(5-chloro-2-(((1S,3R,4S,5R)-4-hydroxy-6,8-dioxabicyclo[3.2.1]octan-3-yl)amino)pyrimidin-4-yl)-2-(((3S,5S)-3,5-dimethylmorpholino)methyl)-3-fluoro-1-isopropylquinolin-4(1H)-one]	120 to 450			40 to 150		

The next lines start with results.

GI50 (22RV1 cells; [2]) [nM]	GI50 (22RV1 cells; read-out: 22RVI, GI50) [nM]	IC50 ([1]; 24 h incubation, read-out: MCF7, pRb (Ser807/811), IC50) [nM]	IC50 [1, 3] [nM]	Compound	Potency in 22RV1 cell growth inhibition compared with the reference compound (22RV1 cells; versus PF-07220060)	Potency in p-Rb inhibition compared with the reference compound ([1]; versus PF-07220060)
≤ 120	144	40.4	40 to 150	CC(C)n1c(C(C)(C)O)nc2c(F)cc(-c3nc(N[C@@H]4C[C@H]5CO[C@H](O5)[C@H]4O)ncc3Cl)cc21 [Compound 1, (1S,3R,4S,5R)-3-((5-chloro-4-(4-fluoro-2-(2-hydroxypropan-2-yl)-1-isopropyl-1H-benzo[d]imidazol-6-yl)pyrimidin-2-yl)amino)-6,8-dioxabicyclo[3.2.1]octan-4-ol]	slightly higher potency	higher potency
120 to 450			40 to 150	Cc1nc2c(F)cc(-c3nc(N[C@@H]4C[C@H]5CO[C@H](O5)[C@H]4O)ncc3Cl)cc2n1C(C)C [Compound 25, (1S,3R,4S,5R)-3-((5-chloro-4-(4-fluoro-1-isopropyl-2-methyl-1H-benzo[d]imidazol-6-yl)pyrimidin-2-yl)amino)-6,8-dioxabicyclo[3.2.1]octan-4-ol]		
≤ 120			≤ 40	Cc1c(CN2[C@@H](C)COC[C@@H]2C)n(C(C)C)c2cc(-c3nc(N[C@@H]4C[C@H]5CO[C@H](O5)[C@H]4O)ncc3F)ccc2c1=O [Compound 199, 2-(((3S,5S)-3,5-dimethylmorpholino)methyl)-7-(5-fluoro-2-(((1S,3R,4S,5R)-4-hydroxy-6,8-dioxabicyclo[3.2.1]octan-3-yl)amino)pyrimidin-4-yl)-1-isopropyl-3-methylquinolin-4(1H)-one]		
